# Assay results published in patent US20250305004A1, “ENHANCING GENE TARGETING EFFICIENCY IN HUMAN CELLS WITH DNA-PK INHIBITOR TREATMENT” (The Board of Trustees of the Leland Stanford Junior …, priority 2022, published 2025).
# Tests used:
# CCR5 locus in PSCs = assay: RNP/AAV6 gene targeting at CCR5 locus, knock-in of two stop codons, PSCs; type: cell-based, human; conditions: low activity gRNAs sg1 and sg4; 0.5 μM
# Experimental: PSC culture and genome editing. […] For each nucleofection, RNP complex was prepared with 5 μg of Cas9 protein and 2 μg of gRNA and incubated for 15 mins at room temperature. PSCs were dissociated into single cells using Accutase (Innovative Cell Technologies, cat: AT104). […] Resuspended cells were added to one well of a 16-well Nucleocuvette Strip (Lonza) and nucleofection was performed in the 4D nucleofector (Lonza) using the program, CA137. Nucleofected PSCs were plated in mTeSR1 medium supplemented with 10 μM of Y27632 at a density of 100,000 cells per well in 48-well plate, AAV6 vector and DNA-PKcs inhibitors were added to the medium at indicated concentrations. […] From the following day, PSCs were cultured in mTeSR1 without Y27632. Gene targeting efficiency was analyzed at 4-6 days post-editing.
# ICE analysis for quantification of gene editing. ICE CRISPR analysis tool (Synthego) was used to determine the allelic distribution of WT, INDEL and HDR frequencies for gene targeting involving knock-in of short sequences and for calculating the frequency of WT and INDEL alleles for gene targeting involving knock-in of multi-kb sequences. […] Following PCR, the amplicons were detected on agarose gel and purified from the gel using GeneJet Gel Extraction Kit (Thermo Fisher Scientific, cat: K0692). […]
# CCR5 locus in HSPCs = assay: RNP/AAV6 gene targeting at CCR5 locus in CD34+ HSPCs; type: cell-based, human; conditions: two stop codons; sg1 and sg4
# Experimental: ddPCR analysis of targeted integration. Gene targeting efficiency for the knock-in of multi-kb sequences was measured through digital droplet PCR (ddPCR) analysis. For this, genomic DNA was extracted from cells using the QuickExtract™ DNA Extraction Solution (QE) (Lucigen, Cat: QE09050). Pellets of 100,000 to 200,000 cells were resuspended in 40 to 50 μl of QE solution. This cell suspension was incubated at 65° C. for 6 mins and then 100° C. for 10 mins. The quick extracted genomic DNA was digested with either BamHI-HF or HindIII-HF (NEB) enzymes at 37° C. for 1 to 2 hours. […] 40 μl of the generated droplet sample was used for the PCR with the following cycle: 95° C. for 10 mins, 50 cycles of 94° C. for 30 secs, 60° C. for 30 secs and 72° C. for 2 mins and 98° C. for 10 mins. After PCR, the droplets were analyzed using the QX200 Droplet Digital PCR reader (Biorad) and Quantasoft software was used to determine the number of copies of the target and reference DNA in the droplets. The allelic gene targeting efficiency was calculated as the percentage of target DNA copies relative to that of the reference. […]
# ICE analysis for quantification of gene editing. […] Following PCR, the amplicons were detected on agarose gel and purified from the gel using GeneJet Gel Extraction Kit (Thermo Fisher Scientific, cat: K0692). […]
# [1] = test system: LT-HSC and MPP populations; assay: Gene targeting at CCR5 locus in FACS sorted LT-HSC and MPP; type: cell-based, human; conditions: flow cytometry for GFP; 0.5 μM
# HSPCs = conditions: 72 h post-gene targeting at CCR5, HBA1 and HBB loci; 0.5 μM
# Experimental: Cell viability measurement. MTT assay was used for measuring the gene edited PSC viability. […] After this incubation, MTT was removed, and cells were lysed using 100 μl of lysis buffer (0.1N HCl and 0.5% SDS in isopropanol). After lysis, absorbance was measured at 570 nm with 650 nm as the reference using a SpectraMax M3 plate reader (Molecular devices). The absorbance values were used to calculate the cell viability of gene edited cells as a percentage relative to the mock cells. […] Viable cell counts were represented as percentage relative to the mock or untreated cells as indicated.
# [2] = test system: top off-target sites of HBB, CCR5 and HBA1 gRNAs in HSPCs; assay: NGS off-target analysis in gene targeted HSPCs; type: cell-based, human
# From the text: For this, we assessed the previously characterized top off-target site for CCR5 (OT39)^66, HBB (OT1)^72 and HBA1 (OT1)74 gRNAs in the gene targeted HSPCs using next generation sequencing (NGS). […] Blocking of specific off-target breaks is possible, however, if there were biologically important reasons to do so^79, 80. […] Thus, gene editing with AZD treatment increases the frequency alleles with WT sequence and deletion INDELs without the HDR donor template.
# NGS analysis for off-target effects. For this, we used commercially available Amplicon-EZ next generation sequencing service from AZENTA, Inc. Previously characterized top off-target site for CCR5 (OT39), HBB (OT1) and HBA1 (OT1) gRNAs were analyzed. PCR was used to amplify a 350-450 bp region encompassing the off-target sites from genomic DNA of the gene targeted HSPCs. Following are the primers used for PCR,
# Following PCR, the amplicons were purified using Genejet PCR purification kit (Thermo Fisher Scientific, cat: K0701). The samples were normalized to a concentration of 20 ng/μl and 25 μl volume was submitted for Amplicon-EZ NGS service (AZENTA, Inc). DNA library preparations, sequencing reactions, and bioinformatics analysis were conducted at AZENTA, Inc. DNA Library Preparation was done using NEBNext Ultra DNA Library Prep kit following the manufacturer's recommendations (NEB). […] DNA libraries were validated on the Agilent TapeStation (Agilent Technologies) and were quantified using Qubit 2.0 Fluorometer (Invitrogen) and multiplexed in equal molar mass. […] The raw Illumina reads were checked for adapters and quality via FastQC. The raw Illumina sequence reads were trimmed of their adapters and nucleotides with poor quality using Trimmomatic v.0.36. Paired sequence reads were then merged to form a single sequence if the forward and reverse reads were able to overlap. The merged reads were aligned to the reference sequence and variant detection was performed using AZENTA proprietary Amplicon-EZ program. INDEL frequency at the target site was quantified and plotted as the frequency of reads with insertions and deletions.
# CCR5 locus in B cells = assay: RNP/AAV6 gene targeting at CCR5 locus in B cells; type: cell-based, human; conditions: different concentrations (4, 2, 1, 0.5 and 0.1 μM); ddPCR
# Experimental: B cell culture and genome editing. […] B cells were cultured at 37° C., 5% CO2, and ambient oxygen levels.
# For genome editing, gRNA targeting CCR5 was complexed with Cas9 protein were complexed at a 2.5:1 ([…]) molar ratio at room temperature for 20 min. […] Cells were then replated at 1 million cells/ml in complete B cell activation media. […] Gene targeting was assessed at 3-days post-editing.
smiles,measurement,setting,value
"Cc1cc2ncnn2cc1Nc1ncc2c(n1)n(C1CCOCC1)c(=O)n2C [AZD7648, 7-methyl-2-((7-methyl-[1,2,4]triazolo[l,5-a]pyridin-6-yl)amino)-9-(tetrahydro-2H-pyran-4-yl)-7,9-dihydro-8H-purin-8-one]",INDELs after gene targeting,CCR5 locus in PSCs,INDEL-free
same,INDELs after gene targeting,CCR5 locus in HSPCs,INDEL-free HDR
same,improvement of frequency of gene targeted cells,[1],more than 2.5 fold
same,viable cell count vs mock cells,HSPCs,only a small drop in viable cell count
same,reads with INDELs at off-target site,"[2]; OT1 site for HBA1 gRNA, untreated […]",around 0.5%
same,reads with INDELs at off-target site,"[2]; OT1 site for HBB gRNA, 0.5 μM, untreated 1%",about 3%
same,reads with INDELs at off-target site,"[2]; OT39 site for CCR5 gRNA, untreated below detection limit",0.03%
same,enhancement of gene targeting,CCR5 locus in B cells,about 2 fold
